Source: publication PMC10287695, “Non-covalent inhibitors of thioredoxin glutathione reductase with schistosomicidal activity in vivo” (Nature Communications, 2023)
Several values for one entry are separate records, joined by “and”; a condition that tells them apart may be missing. Identical values can stand only once. Like-named read-outs stand apart in the source and are kept apart here.

Key:
BmTrxR = BmTrxR (Brugia malayi, UniProt A0A1I9G0T9); assay: B. malayi TrxR enzyme inhibition; assay type: biochemical
Method: Recombinant TGR, human TrxR1, B. malayi (Bm)TrxR and human GR proteins were expressed and purified as described[20],[69],[79]. The codon optimized sequence for P. falciparum (PfTrxR, https://www.ncbi.nlm.nih.gov/protein/CAA60574.1/) with an N-terminal 6-His tag was synthesized and inserted into pET15b (GenScript) and expressed in BL21 (DE3) cells and purified as described for human GR[20]. […] The reaction was started with addition of an equal volume of DTNB (6 mM) and NADPH (100 µM) and the increase in A412 during the first 3 min was recorded. […] Activity was initiated with the addition of 1 mM GSSG and 100 μM NADPH and initial rates of NADPH oxidation were monitored at 340 nm. The reactions were done in triplicate. The IC50 was calculated in GraphPad Prism.

TGR = target: T1, TGR (Schistosoma mansoni, UniProt Q962Y6); assay: Thermal shift assay (TSA); assay type: binding; set-up: key to Avg. Tm / Tm, replicate 1-3: Tm in °C, from a 25–95 °C melt curve; settings: for Avg. Tm / Tm, replicate 1-3: TGR + 100 µM compound; for Avg. Tm, + 500 µM NADPH / Tm, replicate 1-3, + 500 µM NADPH: TGR + 100 µM compound + 500 µM NADPH; for Tm, replicate 1-3, + 500 µM NADPH / Tm, replicate 1-3: single replicates; for effect on Tm of oxidized TGR: without NADPH; for increase in the Tm of TGR in the presence of NADPH: 500 µM NADPH
T1 construct: made in house
T1 sequence (Q962Y6 1-598): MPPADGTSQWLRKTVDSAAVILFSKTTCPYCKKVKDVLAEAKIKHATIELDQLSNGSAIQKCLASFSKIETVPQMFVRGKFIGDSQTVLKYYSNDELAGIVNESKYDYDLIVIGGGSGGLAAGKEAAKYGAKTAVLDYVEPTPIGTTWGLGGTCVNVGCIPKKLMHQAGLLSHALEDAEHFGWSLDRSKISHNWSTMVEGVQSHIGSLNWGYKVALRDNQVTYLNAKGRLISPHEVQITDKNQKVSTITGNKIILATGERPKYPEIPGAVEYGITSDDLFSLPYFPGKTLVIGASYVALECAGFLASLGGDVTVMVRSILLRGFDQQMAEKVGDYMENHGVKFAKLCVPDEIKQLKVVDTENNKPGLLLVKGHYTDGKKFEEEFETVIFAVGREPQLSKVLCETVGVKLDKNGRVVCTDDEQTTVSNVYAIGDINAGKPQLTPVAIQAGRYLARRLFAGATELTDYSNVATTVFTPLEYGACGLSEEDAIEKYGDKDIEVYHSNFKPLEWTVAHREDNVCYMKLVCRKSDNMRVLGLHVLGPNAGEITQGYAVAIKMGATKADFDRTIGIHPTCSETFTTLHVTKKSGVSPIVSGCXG
Method: Samples were prepared by using a final concentration of 0.25 mg/ml TGR diluted in TGR reaction buffer to the desired volume. To evaluate reduced TGR, 500 µM NADPH was added. […] After the preincubation period, 20 µL samples were pipetted into a BioRad un-skirted PCR 96 well plate and sealed with MicroAmp^TM Optical Adhesive film. The plate was then centrifuged for 5 min at 1000 × g. TSA was carried out using a BioRad CFX Connect qPCR instrument with a melt curve setting of 25 − 95 °C, in increments of 0.5 °C/10 seconds. The SYBR green channel was used to detect fluorescence as the wavelength of flavin fluorescence overlaps with that of SYBR green. BioRad CFX Maestro 5.2 was used to analyze TSA data.

[1] = Cytotoxicity in mammalian cells (Cell Titer Glo); assay type: cell-based; settings: African green monkey, Vero cells
Method: Following overnight incubation, formulated DMSO-compound stock solutions were diluted with DMEM at <1% DMSO final concentrations. […] Vero cells treated similarly with different concentrations of PZQ, MZM and AF (Cayman Chemicals) were used as positive controls.

[2] = system: S. mansoni adult worms in mice; assay: Schistosomicidal efficacy in infected mice, adult worms (42 d.p.i.); assay type: in vivo; settings: for Egg burden, Treated, individual mice / Worm burden, Treated, individual mice: Adult worm, listed as 9VP173; for Egg burden, Treated, individual mice: eggs per 50 mg liver (Fig. 6); for decrease in egg burden / decrease in worm burden: mice
Method: To assess the efficacy of the compounds in vivo against juvenile and adult worms, five female Swiss-Webster mice were randomly assigned for the control and experiment groups using a randomization tool embedded in GraphPad Prism. Mice were percutaneously exposed for 1 h to about 80 S. mansoni cercariae. Three- and six-weeks post infection, respectively, for juvenile and adult worms, mice were treated depending on their weight with formulations of the compounds, while the control mice received only the vehicle. Compounds were formulated with 10% DMSO and 10% Tween-80, and vortexed to obtain a uniform mixture. The mixture was sonicated twice for 5 min each time using a digital ultrasonic cleaner heated to 50 °C. Sodium chloride 0.9% (80% normal saline) was added to the mixture, briefly vortexed and sonicated one more time using the same conditions as previous. The investigators were blinded by which group of mice received a treatment and the vehicle, as injection was done by technicians from the Comparative Research Center of Rush University Medical Center. Using a 26 G, 3/8 in intradermal bevel needle, each mouse was administered intraperitoneally with 100 µl of the formulated compound suspension at 50 mg/kg, 100 mg/kg and 200 mg/kg. Mice treated three weeks post infection for juvenile worms were euthanized three weeks post treatment and mice treated six weeks post infection were euthanized one week post treatment with 0.018 ml of Euthasol and 5.85 mg/ml heparin and perfused. The mesenteric and hepatic portal veins of the mice were carefully scanned under the microscope to extract any remaining S. mansoni adult worms and worm burdens were determined. Egg burden was determined by weighing 50 mg of liver tissue from each of treated and control mice. The liver tissues were digested with 5% KOH at 37 °C overnight and washed twice with PBS. The number of eggs per 50 mg of liver tissue was determined using a Keyence BZ-X800 microscope using the egg autofluorescence.

[3] = 50 µM, the highest concentration tested
[4] = BmTrxR, 10 µM compound, mean of 3 replicates, read-out: % inhibition
[5] = BmTrxR, 25 µM compound, mean of 3 replicates, read-out: % inhibition
[6] = BmTrxR, 50 µM compound, mean of 3 replicates, read-out: % inhibition
[7] = read-out: BmTrxR % inhibition at 50 µM, 50 µM, the highest concentration tested
[8] = 1 x 100 mg/kg i.p. at 42 d.p.i.
[9] = 1 x 200 mg/kg i.p. at 42 d.p.i.
[10] = 5 µM, relative to untreated control
[11] = 10 µM, relative to untreated control
[12] = 25 µM, relative to untreated control
[13] = 35 µM, relative to untreated control
[14] = 50 µM, relative to untreated control

BmTrxR, sequence (A0A1I9G0T9 entry or part of it, added parts left off): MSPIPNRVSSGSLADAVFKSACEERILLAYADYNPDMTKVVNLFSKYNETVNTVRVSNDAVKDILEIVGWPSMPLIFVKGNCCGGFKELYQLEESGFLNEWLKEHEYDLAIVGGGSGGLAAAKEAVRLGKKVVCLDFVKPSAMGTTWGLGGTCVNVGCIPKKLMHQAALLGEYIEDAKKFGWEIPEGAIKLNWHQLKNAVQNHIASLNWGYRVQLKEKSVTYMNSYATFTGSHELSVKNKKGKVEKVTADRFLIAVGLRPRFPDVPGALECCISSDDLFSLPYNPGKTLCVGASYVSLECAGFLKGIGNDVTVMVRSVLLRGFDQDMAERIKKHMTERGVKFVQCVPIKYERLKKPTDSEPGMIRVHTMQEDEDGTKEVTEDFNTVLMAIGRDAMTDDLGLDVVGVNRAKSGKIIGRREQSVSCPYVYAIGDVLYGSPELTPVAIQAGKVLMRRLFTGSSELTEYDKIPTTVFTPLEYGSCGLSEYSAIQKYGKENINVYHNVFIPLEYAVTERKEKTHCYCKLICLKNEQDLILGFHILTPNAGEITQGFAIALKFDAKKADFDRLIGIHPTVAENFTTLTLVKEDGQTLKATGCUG

Compound	Avg. Tm (TGR)	Avg. Tm, + 500 µM NADPH (TGR)	Tm, replicate 1-3 (TGR; in °C (unit assumed))	effect on Tm of oxidized TGR (TGR)	inhibition at 10 µM (BmTrxR; [4]) [%]	inhibition at 25 µM (BmTrxR; [5]) [%]	inhibition at 50 µM (BmTrxR; [6]) [%]	inhibition at 50 µM (BmTrxR; [7]) [%]	Tm, replicate 1-3, + 500 µM NADPH (TGR; in °C (unit assumed))	Tm, replicate 1-3 (TGR)	viability at 24 h, 5 µM [1, 10] [%]	viability at 24 h, 10 µM [1, 11] [%]	viability at 24 h, 25 µM [1, 12] [%]	viability at 24 h, 35 µM [1, 13] [%]	viability at 24 h, 50 µM [1, 14] [%]	also measured
Cc1oc(-c2ccccc2)nc1CN[C@@H]1C[C@@H]2C[C@H]([C@H]1C)C2(C)C [Compound 3]	73.5	73.67	73.5	Neither fast 6-9 nor slow TGR inhibitors 1, 3, 5 affected the Tm												inhibition at 10 µM (BmTrxR): -15.1%; inhibition at 25 µM (BmTrxR): -10.6%; inhibition at 50 µM (BmTrxR): -20.9%; BmTrxR % inhibition at 50 µM (BmTrxR; [3]): n.i.; Tm, replicate 1-3, + 500 µM NADPH (TGR): 74 and 73.5 (2×)
Cc1oc(C2CCCCC2)nc1CN[C@@H]1C[C@@H]2C[C@H]([C@H]1C)C2(C)C [Compound 4]					-0.192	0.661	0.575									BmTrxR % inhibition at 50 µM (BmTrxR; [3]): n.i.
Cc1oc(-c2ccc3ccccc3c2)nc1CNC1CCCCCC1 [Compound 5]	73.5	73.5	73.5	Neither fast 6-9 nor slow TGR inhibitors 1, 3, 5 affected the Tm	-0.384	3.27	9.07	9	73.5							
Cc1oc(C2CCCCC2)nc1C(=O)N[C@@H]1C[C@@H]2C[C@H]([C@H]1C)C2(C)C [Compound 7]	73.6667	73.5			-2.13	-0.458	-0.00455	11	73.5	73.5 (2×) and 74						viability at 24 h, 5 µM ([1]; Conc. 5 µM): 92%; viability at 24 h, 10 µM ([1]; Conc. 10 µM): 91.8%; viability at 24 h, 25 µM ([1]; Conc. 25 µM): 89.5%; viability at 24 h, 35 µM ([1]; Conc. 35 µM): 85.8%; viability at 24 h, 50 µM ([1]; Conc. 50 µM): 83.6%
C[C@@H]1[C@H]2C[C@@H](C[C@H]1NCc1nc3ccccc3n1C1CCCCCC1)C2(C)C [Compound 8]	73.8333	70			17.7	43.3	68.2	67.7	69 and 70 and 71	73.5 and 74 (2×)						viability at 24 h, 1 µM ([1]; Conc. 1 µM): 97%; viability at 24 h, 5 µM ([1]; Conc. 5 µM): 93.8%; viability at 24 h, 10 µM ([1]; Conc. 10 µM): 88.6%; viability at 24 h, 25 µM ([1]; Conc. 25 µM): 69.7%; viability at 24 h, 50 µM ([1]; Conc. 50 µM): 44.6%; viability at 24 h, 100 µM ([1]; Conc. 100 µM): 4.99%; Egg burden, Treated, individual mice ([2]; 1 x 100 mg/kg): 2302 and 2373 and 2391 and 2292 and 2275; Worm burden, Treated, individual mice ([2]; 1 x 100 mg/kg): 24 and 25 and 21 and 15; Egg burden, Treated, individual mice ([2]; 1 x 200 mg/kg): 2221 and 2235 and 2223 and 2217 and 2241; Worm burden, Treated, individual mice ([2]; 1 x 200 mg/kg): 24 and 29 and 27 and 28 and 23; decrease in egg burden [2, 8]: 2.1%; decrease in worm burden [2, 8]: 13.5%; decrease in egg burden [2, 9]: 7% and 6.8%; decrease in worm burden [2, 9]: 19% and 18.9%
CC1C(NCc2cn(C3OCC(O)C(O)C3O)c3ccccc23)CC2CC1C2(C)C (centres unmarked) [Compound 9]	74.8	68		doesn’t shift the Tm	47.6	70.1	83.3		67.5 and 68 and 69	74.5 (2×) and 75	92.7	90.7	89.9	89.6	83.5	IC50 (BmTrxR): 13.7 ± 1.03 µM; shift of Tm of reduced TGR (TGR; 400uM compound): 1.5 °C; shift of Tm of reduced TGR (TGR; 1mM compound): 3 °C
C[C@@H]1[C@H]2C[C@@H](C[C@H]1NCc1cc(-c3ccccc3)[nH]n1)C2(C)C [Compound 11]	73.5	63.67	73.5	no effect												increase in the Tm of TGR in the presence of NADPH (TGR): no effect; Tm, replicate 1-3, + 500 µM NADPH (TGR): 63.5 (2×) and 64
C[C@@H]1[C@H]2C[C@@H](C[C@H]1NCc1nc3ccccc3n1C)C2(C)C [Compound 12]	73.5	64	73.5	no effect					64							increase in the Tm of TGR in the presence of NADPH (TGR): no effect
C[C@@H]1N=C(c2ccccc2Cl)c2cc([N+](=O)[O-])ccc2NC1=O [MZM, meclonazepam, reference compound]											99.8	98.1	92.9	90.8	87	
O=C(C1CCCCC1)N1CC(=O)N2CCc3ccccc3C2C1 (centres unmarked) [PZQ, praziquantel]											97.1	98.3	92.3	89.1	88.9	
